Measurements published in PubChem BioAssay (NCI).
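In this assay, cells in 96-well plates receive the compound at five concentrations for 48 hours. Endpoints are linearly interpolated between the surrounding concentrations. GI50 marks 50% less growth. TGI marks complete inhibition of growth.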

How the values were obtained:
Test in all cases: NCI tumour cell line growth inhibition, 48 h
[1] = test system: SW-620 colon
[2] = test system: HT29 colon
[3] = test system: SK-MEL-28 melanoma
[4] = test system: DU-145 prostate
[5] = test system: RXF 393 renal
[6] = test system: T-47D breast
[7] = test system: UO-31 renal
[8] = test system: HCC-2998 colon
[9] = test system: NCI-H522 lung
[10] = test system: HL-60(TB) leukemia

Structure (SMILES) | GI50 [1] [µM] | TGI [1] [µM] | GI50 [2] [µM] | TGI [2] [µM] | GI50 [3] [µM] | TGI [3] [µM] | GI50 [4] [µM] | TGI [4] [µM] | GI50 [5] [µM] | TGI [5] [µM] | GI50 [6] [µM] | TGI [6] [µM] | GI50 [7] [µM] | TGI [7] [µM] | GI50 [8] [µM] | TGI [8] [µM] | GI50 [9] [µM] | TGI [9] [µM] | GI50 [10] [µM] | TGI [10] [µM]
Cc1cc(OCc2nnc3n2N=C(c2ccc(Cl)cc2Cl)CS3)ccc1Cl | > 100 | > 100 | 59.8 | > 100 | 79.3 | > 100 | 69.7 | > 100 | 52.2 | > 100 | 40.5 | > 100 | 34 | > 100 | 68.6 | > 100 | 22.6 | 65 | 45.9 | > 100
Cn1cnc([N+](=O)[O-])c1Sc1ncn[nH]1 | 61.1 | > 100 | > 100 | > 100 | > 100 | > 100 | 63.4 | > 100 | 29 | > 100 | 17 | > 100 | 35.2 | > 100 | > 100 | > 100 | 19.8 | > 100 | 75.5 | > 100
COc1ccc2nc(NC(=O)c3cccnc3Nc3cc(OC)c(OC)c(OC)c3)sc2c1 | 11.8 | 24.5 | 17.7 | 39.2 | 7.88 | 21.3 | 14.6 | 33.8 | 2.6 | 8.85 | 5.06 | 51.3 | 9.3 | 27.2 | 17 | 39.4 | 2.6 | 12 | 32.3 | > 100
CCOC(=O)c1c(C)c(C)n2c1NC(=O)C2 |  | > 100 |  | > 100 |  | > 100 |  | 64.3 |  | > 78.2 |  | 70.7 |  | > 100 |  | > 100 |  | > 68 |  | > 100
CN(C)CCN1C(=O)c2cccc3cccc(c23)C1=O | 11.7 | > 25 | 11.7 | > 25 | > 25 | > 25 | 12.4 | > 25 | 13.4 | > 25 | > 25 | > 25 | 11 | > 25 | > 25 | > 25 | 15.1 | > 25 | 6.82 | > 25
Cn1c(=O)c(Oc2ccc(F)cc2F)cc2cnc(NCCS(C)(=O)=O)nc21 | > 25 | > 25 | > 25 | > 25 | > 25 | > 25 | > 25 | > 25 | > 25 | > 25 | > 25 | > 25 | > 25 | > 25 | > 25 | > 25 | > 25 | > 25 | > 25 | > 25
